# Patent US9908845B2, “Aryl ethers and uses thereof” (Peloton Therapeutics, Inc., priority 2013, dated 2018)
# Experiments:
# [1] = test system: HIF-2α and HIF-2α-regulated genes (PAI-1, CCND1, VEGFA, and GLUT1); assay: mRNA levels in tumor of 786-O xenograft bearing mice; type: in vivo; settings: renal cell carcinoma 786-O xenograft bearing mice; 10, 30 and 100 mg/kg three times at 12 hour intervals
# human VEGFA [2] = assay: plasma human VEGF level of 786-O xenograft bearing mice; type: in vivo; settings: 10, 30 and 100 mg/kg three times at 12 hour intervals, prior to treatment vs 12 h post treatment
# 786-O xenograft = assay: tumor size in 786-O xenograft bearing mice, single agent; type: in vivo; settings: 3, 10, 30 and 100 mg/kg BID for 20 days
# [3] = test system: EPO and PGK1 mRNA in mouse kidney; assay: In vivo PK/PD study: mouse kidney mRNA levels by qRT-PCR; parameters: species or system SCID/Biege mice; settings: oral gavage, three times at 12 hour intervals
# Procedure: (§1) About 5×10^6 renal cell carcinoma 786-O tumor cells (ATCC® CRL-1932™, VHL and HIF-1α null cell line) in PBS and Matrigel (1:1 in volume) were injected subcutaneously at the right flanks of SCID/Biege mice at 6-7 weeks of age for xenograft development. When the xenografts reached about 450 mm^3 in size, the tumor bearing mice were randomly divided into 4 groups (n=4). Plasma was collected prior to treatment by retro-orbital bleeding. […] All animals were sacrificed at 12 hours post last dose. Tumor, kidney, and plasma were collected from each animal. Total RNA was extracted from the tumors and kidneys. The mRNA levels of HIF-1α, HIF-2α and their respective target genes were determined by qRT-PCR (FIG. 1).
# human VEGFA [4] = assay: In vivo PK/PD study: plasma level of human VEGFA by ELISA; parameters: species or system SCID/Biege mice; settings: 10, 30 or 100 mg/kg oral gavage, three times at 12 hour intervals
# Procedure: as §1
# [5] = test system: 786-O renal cell carcinoma cells; assay: In vivo efficacy study, renal cell carcinoma 786-O xenograft model; parameters: species or system SCID/Biege mice
# [6] = molecular target: HIF-2α HIS TAG-PASB Domain; assay: HIF-2α Scintillation Proximity Assay (SPA), probe displacement; type: binding
# Procedure: The percent inhibition was determined and IC50 values were calculated using the Dotmatics system based on the following equation: % inhibition=[(high control−sample)/(high control−low control)]×100.
smiles,measurement,setting,value
"N#Cc1cc(F)cc(Oc2ccc(S(=O)(=O)C(F)F)c3c2CC(F)(F)[C@H]3O)c1 [Compound 15, 3-[(1S)-7-(difluoromethylsulfonyl)-2,2-difluoro-1-hydroxy-indan-4-yl]oxy-5-fluoro-benzonitrile]","mRNA levels of HIF-2α and HIF-2α-regulated genes (PAI-1, CCND1, VEGFA, and GLUT1) in tumor",[1],reduced
same,plasma level of human VEGFA,human VEGFA [2],reduced
same,tumor size,786-O xenograft,tumor size reduction and regression
same,Level of EPO mRNA in mouse kidney,[3],reduced
same,mRNA level of PGK1 in mouse kidney,[3],remained unchanged
same,Human VEGFA in the plasma of 786-O tumor-bearing mice,human VEGFA [4],significant reduction
same,Reduction of tumor size vs vehicle (t-Test),"[5]; all treatment groups, 786-O xenograft model",statistically significant reduction
"CCN(CC)CCNC(=O)c1c(C)[nH]c(/C=C2\C(=O)Nc3ccc(F)cc32)c1C [Sutent, sutent, reference compound]",Tumor size Mean ± SEM,"[5]; 40 mg/kg QD, after 20 days of dosing",211.59 mm^3
"O=S(=O)(c1ccc(Oc2ccc(F)c(Cl)c2)c2c1[C@H](O)C(F)(F)C2)C(F)F [Compound 26, (S)-4-(3-Chloro-4-fluorophenoxy)-7-((difluoromethyl)sulfonyl)-2,2-difluoro-2,3-dihydro-1H-inden-1-ol]",IC50,[6],< 5 nM
